Converted amounts (≈) assume the structure as drawn. Residues, ends and D or L forms follow the SMILES beside them. *: point of attachment. OBn = c1ccc(CO*)cc1
Conditions: buffer; pH 7.4; 200.0 µM

SMILES | solubility kinetic [µg/mL]
CC1CCCN(S(=O)(=O)c2csc(C(N)=O)c2)C1 (stereo not drawn) | > 43.3
Cn1cccc1/C=C1/SC(=O)N(CC(=O)N2CCCC2)C1=O | 15.2 (≈ 47.6 µM)
CCc1ccc(CN2CCC(CO)(CC3CCCCO3)CC2)o1 (stereo not drawn) | 38.1 (≈ 119 µM)
Cc1ccn2cc(CNS(=O)(=O)c3cccs3)nc2c1 | > 46.1
CCc1cccc(C)c1NC(=O)CCOc1ccccc1 | 10.9 (≈ 38.5 µM)
O=C(COc1ccccc1)NCCc1cnc[nH]1 | > 36.8
COc1cccc(C(=O)Nc2cccc(-c3ccccc3)c2)c1 | 2.5 (≈ 8.24 µM)
CC1CC(C)CN(CC(=O)c2cccs2)C1 (stereo not drawn) | 30.8 (≈ 130 µM)
Cc1ccc(C(=O)C[n+]2ccccc2C)cc1[N+](=O)[O-].[Br-] | 48.3
O=c1c2ccccc2[nH]c2ccccc12 | 4.7 (≈ 24.1 µM)
Cc1ccccc1C(=O)OCC(=O)N(C)c1ccccc1 | > 42.5
CN1CCN(CC(O)COc2ccc(C(=O)O)cc2)CC1 (stereo not drawn) | 35.5 (≈ 121 µM)
O=c1cc(C(F)(F)F)[nH]c2ccccc12 | > 32
Cc1cc(SCC(=O)N2CCCC2=O)nc2ccccc12 | 11.2 (≈ 37.3 µM)
CCOc1ccc(/C=N/OCC(=O)NCc2ccco2)cc1 | > 45.3
O=C(CN1c2cccc3cccc(c23)S1(=O)=O)NC1CCCCC1 | 5 (≈ 14.5 µM)
O=C1CSC(c2ccccc2)N1Cc1ccccc1 (stereo not drawn) | 31.3 (≈ 116 µM)
O=C(O)c1nccnc1C(=O)Nc1ccccc1-c1ccccc1 | > 47.9
C/C(=N/NC(=O)c1ccccn1)c1ccncc1 | > 36
CC(NC(=O)COC(=O)c1ccc2ccccc2n1)c1ccccc1 (stereo not drawn) | 5.3 (≈ 15.9 µM)
N#Cc1ccc(COC(=O)c2ccc3c(c2)OCO3)cc1 | 2.3 (≈ 8.18 µM)
O=C(COC(=O)/C=C/c1ccc([N+](=O)[O-])cc1)NCC1CCCCC1 | 1.5 (≈ 4.33 µM)

SMILES | solubility kinetic [µg/mL]
COc1ccc(S(=O)(=O)N2CCN(c3cnccn3)CC2)cc1 | > 50.2
C=CCNC(=S)NNC(=O)c1ccncc1 | > 35.4
CCOC(=O)c1ccc(-n2c(CC)nc3ccccc3c2=O)cc1 | 1.4 (≈ 4.34 µM)
Cc1ccc(OCCCCCN2CCOCC2)cc1 | 32.3 (≈ 123 µM)
CC(C)c1ccc(NC(=O)CNCC(c2ccccc2)N(C)C)cc1 (stereo not drawn) | 32.9 (≈ 96.9 µM)
NC(=S)c1c(Cl)cc(C(F)(F)F)cc1Cl | 40.6 (≈ 148 µM)
CC(NCc1cccnc1)c1ccccc1 (stereo not drawn) | > 31.8
O=C(NC1CCN(C(=O)c2cccc([N+](=O)[O-])c2)CC1)c1ccccc1 | > 53
CC1CCC2(CC1)NC(=O)N(CC(=O)c1ccc3c(c1)OCO3)C2=O (stereo not drawn) | 3.8 (≈ 11 µM)
CN(C)c1ccc(C2CC(=O)C=C(Nc3ccccc3N)C2)cc1 (stereo not drawn) | 48.2 (≈ 150 µM)
O=C(Nc1cccnc1)c1ccccc1Cl | > 34.9
O=C(Cc1ccccc1)O/N=C1\CCCc2ccccc21 | 17.1 (≈ 61.2 µM)
S=C(NCc1ccccc1)Nc1ccc2ccccc2c1 | 0.9 (≈ 3.08 µM)
O=C(N[C@@H](Cc1c[nH]c2ccccc12)C(=O)O)c1ccc(Cl)cc1 | > 51.4
CC(C)NC(=O)/C(C#N)=C\c1ccc(N(C)C)o1 | > 37.1
C=CCOc1ccc(CN(C)CC(O)COc2cccc3ccccc23)cc1 (stereo not drawn) | 19.5 (≈ 51.7 µM)
COc1ccccc1OCCC(=O)OCC(=O)Nc1ccc2c(c1)OCCO2 | 55.8 (≈ 144 µM)
CCN1CCN(Cc2c3ccccc3cc3ccccc23)CC1 | 27.9 (≈ 91.6 µM)
Cc1ccc(OCC(=O)NC2CCCCCC2)cc1C | 3.4 (≈ 12.3 µM)
CCOC(=O)c1ccc(NC(=O)Nc2ncccc2C)cc1 | 0.6 (≈ 2 µM)
O=c1[nH]c2cc3ccccc3cc2nc1C(F)(F)F | 2.9 (≈ 11 µM)
CC(=O)NCC(=O)N[C@@H](CC(=O)OCc1ccccc1)C(=O)OCc1ccccc1 (Ac-Gly-Asp(OBn)-OBn) | > 61.9

SMILES | solubility kinetic [µg/mL]
CSc1ccccc1C(=O)NC(C)c1ccc(-n2ccnc2)cc1 (stereo not drawn) | > 50.6
Clc1ccccc1Sc1ccc(-c2ccccn2)s1 | < 0.7
O=C(NC1CCCc2ccccc21)c1ccccn1 (stereo not drawn) | 35.9 (≈ 142 µM)
CCCCNC(=O)N(C)c1nc2ccccc2s1 | 28.8 (≈ 109 µM)
Cc1cccc(CN2C3=NCCCN3c3ccccc32)c1.Cl | > 47.1
Cc1ccc2ccccc2c1NC(=O)c1ccco1 | > 37.7
O=C(CN1C(=O)NC2(CCc3ccccc32)C1=O)Nc1cccc(Cl)c1 (stereo not drawn) | 54.2 (≈ 147 µM)
CCN(CC)c1ccc(CNc2ccc3c(c2)ncn3CC)cc1 | 21.9 (≈ 67.9 µM)
CN(C)CCn1cnc2ccccc21.Cl | > 39.3
CCCn1c2c(c(=N)c3c1CCC3)CCC2.I | > 51.6
c1csc(-c2nc3ccccc3s2)c1 | 0.7 (≈ 3.22 µM)
O=C(CCS(=O)(=O)c1ccccc1)NC1CCCCC1 | > 44.3
Cc1ccc(C(C)C)c(OCCOCCN2CCNCC2)c1.O=C(O)C(=O)O | 52.1
CCOc1ccc(NC(=S)Nc2cccc3ccccc23)cc1 | 2 (≈ 6.2 µM)
Cc1ccsc1C(=O)NCCc1ccc(S(N)(=O)=O)cc1 | 32.8 (≈ 101 µM)
NC(=S)C(c1ccccc1)c1ncc(C(F)(F)F)cc1Cl (stereo not drawn) | 41.7 (≈ 126 µM)
Cn1c(N)c(C(=O)CSc2nnc(N)s2)c(=O)n(C)c1=O | > 49.3
CCCCCn1cc(C(=O)C(=O)N2CCOCC2)c2ccccc21 | 46.8 (≈ 143 µM)
Cc1ccc(S(=O)(=O)Nc2nc(-c3ccccc3)cs2)cc1 | > 49.6
COc1ccccc1CNc1ncccn1.O=C(O)C(=O)O | 34.4
CC(C)[C@H](NC(=O)c1ccccc1)C(=O)OCC(=O)c1c(N)n(C)c(=O)n(C)c1=O | > 62.5
Cc1ccc(NC(=O)C2CCCC2)c(Br)c1 | 8.6 (≈ 30.5 µM)

SMILES | solubility kinetic [µg/mL]
O=C(COC(=O)c1ccc(O)cc1)NCCC1=CCCCC1 | > 45.5
O=C(c1ccccc1)N1CCSc2sccc2C1=O | 37.5 (≈ 130 µM)
CC(C)CC(=O)N1CC(=O)Nc2ccc(F)cc2C1c1ccccc1 (stereo not drawn) | > 51.1
COc1ccc2c(CC(=O)OCc3nc4ccsc4c(=O)[nH]3)coc2c1 | 32.2 (≈ 86.9 µM)
O=S(=O)(Cc1ccccc1)Cc1cnc(Cl)s1 | > 43.2
CN(C)C(=O)CS(=O)(=O)c1ccc(Cl)cc1 | 32.7 (≈ 125 µM)
O=C(NCCOC(=O)c1ccccc1)c1ccc([N+](=O)[O-])cc1 | 14 (≈ 44.5 µM)
COC(=O)c1sccc1S(=O)(=O)Nc1ccc(C)cc1 | 5 (≈ 16.1 µM)
Cc1ccc(S(=O)(=O)N2CCc3ccccc3C2CC(=O)O)cc1 (stereo not drawn) | > 51.8
O=C(COC(=O)CN1C(=O)c2ccccc2C1=O)Nc1ccccc1 | > 50.7
c1ccc(CSc2nc3ccccc3[nH]2)cc1 | 2.1 (≈ 8.74 µM)
NC(N)=NS(=O)(=O)c1ccc(NC(=S)NC(=O)c2ccccc2)cc1 | 3.9 (≈ 10.3 µM)
O=C(O)c1ccc(N=Cc2c(O)[nH]c(=O)[nH]c2=O)cc1 | > 41.3
Cc1ccc(NC2=CC(=O)C(=O)c3ccccc32)c(C)c1 | 3.5 (≈ 12.6 µM)
CCn1c(=S)[nH]c2cc(Cl)ccc21 | > 31.9
Cc1cc(NC(=O)CN2C(=O)c3ccccc3C2=O)no1 | 37.9 (≈ 133 µM)
CC(C)CC1NC(=O)N(CC(=O)N(C)C2CCCCC2)C1=O (stereo not drawn) | > 46.4
Nc1oc2ccccc2c(=O)c1-c1ccc2c(c1)OCO2 | > 42.2
CCOC(=O)c1c(C)nc(C(Cl)(Cl)Cl)nc1N | 21.7 (≈ 72.7 µM)
c1ccc(-c2nc(N3CCOCC3)sc2-c2ccccc2)cc1 | < 0.3
COc1ccccc1NC(=O)C(C)N(C)CC(=O)Nc1cccc2ccccc12.Cl (stereo not drawn) | > 64.2
c1ccc(Oc2nc(-c3cccnc3)nc3ccccc23)cc1 | 0.7 (≈ 2.34 µM)
